The nature of assay [1]: Cued fear conditioning (freezing) after ventricle administration of RFRP-1. Type of assay: in vivo, Wistar male rat. The settings on record: rat, 3 nmol into a ventricle, on 2 day (48 hours after training); saline group 46.5% (Fig. 4). On the procedure:
(§1) A value indicates mean ± […] (mean ± SE) (n = 4). • Fig. 4 indicates a ratio of freezing in cued fear conditioning when RFRP-1 (-◆-) and a physiological saline (-○-) are administered in a ventricle. An ordinate axis indicates freezing (%) of one day and two day after administration, respectively, expressed by mean ± standard error.
Amnesia promoting activity of RFRP
Since an RFRP nerve is projected on amygdaloid complex, in order to study involvement of RFRP in amygdaloid complex-dependent memory•learning ability, influence under cued fear conditioning due to ventricle administration of RFRP-1 was studied. A mature Wistar male rat (weight 280 to 320 g at operation) was anesthetized with 50 mg/kg of pentobarbital by intraperitoneal administration, and a rat was fixed in a brain localization apparatus. A tooth cutting bar was set lower by 3.3 mm from an interoralline. A cranial bone was exposed, and a hole was opened in a bone using a dental drill in order to embed a guide cannulae AG-12 (internal diameter 0.4 mm, external diameter 0.5 mm, Eicom) in a ventricle. In addition, an anchor screw was embedded in four places at a periphery thereof. A stainless guide cannulae AG-12 was inserted so that its tip was positioned at an upper part of a side ventricle. […]

Assay [2] can be described thus: Blood glucose concentration after intravenous administration of RFRP-1 to rat under no anesthesia. Type of assay: in vivo, Wistar male rat. The settings on record: 10 nmol/kg, 5 minutes and 15 minutes after administration, compared with physiological saline group (Fig. 1). On the procedure:
as §1
Blood glucose concentration increasing activity of RFRP
As RFRP, human RFRP-1 (37 amino acids) consisting of an amino acid sequence of 56th (Ser) to 92nd (Phe) of an amino acid sequence represented by SEQ ID No.: 3. Hereinafter, this peptide is abbreviated as RFRP-1.
In order to study influence of peripheral administration of RFRP-1 on a blood glucose concentration, operation for collecting blood under free moving was performed. A mature Wistar male rat (weight 310 to 350 g at operation) was anesthetized with 50 mg/kg of pentobarbital by intraperitoneal administration. The rat was fixed on an anatomic pad in a supine position, and a left jugular vein was exposed. […]
Overnight after operation, 300 µl of blood was collected using a tuberculin injection syringe having a dose of 1 ml and a 25 gauge injection needle (both Telmo) before administration of RFRP-1. […] A blood glucose concentration was measured using Fuji Drichem 3500 (FUJIFILM).

Assay [3] is described as follows: Blood glucagon and insulin concentration after intravenous administration of RFRP-1 to rat. In kind it is in vivo, Wistar male rat. The settings on record: for blood glucagon concentration: intravenous, compared with physiological saline group (Fig. 2). On the procedure:
as §1
Pancreatic glucagon secretion promoting activity of RFRP
In order to study mechanism of blood glucose concentration increasing activity of RFRP-1, influence of RFRP-1 on a blood concentration of glucagon and insulin which are known as a hormone imparting a variation to a blood glucose concentration was studied. A mature Wistar male rat (weight 310 to 350 g at operation) was operated for collecting blood under free moving. Overnight after operation, 300 µl of a blood was collected using a tuberculin injection syringe having a dose of 1 ml and a 25 gauge injection needle (both Telmo) before administration of RFRP-1. In order to prevent blood coagulation, 3 µl of a 300 KIU/ml aprotinin solution containing 3 mg/ml EDTA had been placed into an injection syringe in advance. An Otsuka physiological saline or RFRP-1 dissolved in a physiological saline (80 nmol/mL) was intravenously administered through a tube at 1 mL/Kg. After 1, 3, 5 and 15 minutes from initiation of intravenous administration, each 300 µL of blood was collected from a jugular vein. The collected blood was centrifuged (13,000 rpm, 5 minutes) using a minor amount high speed cooling centrifuge (MR-150, Tommy Seiko), and the supernatant (plasma) was recovered.

The subject of the next assay is human-type OT7T022. Kind of assay: Binding inhibiting activity using human-type OT7T022-expressing CHO cell membrane fraction and 125I-labeled Y-RFRP-3. The settings on record: human-type OT7T022-expressing CHO cell membrane fraction 1 µg; 125I-labeled Y-RFRP-3 100 pM; room temperature 1.5 hours; read-out: IC50 value (binding inhibiting rate). On the procedure: Assessment of binding inhibiting activity of test compound using human-type OT7T022-expressing CHO cell
(1) Preparation of iodine-labeled entity of human-type RFRP-3 (Y-RFRP-3)
A part thereof was 1/100 diluted, radioactivity was measured with a γ-counter, and the remaining authentic product was distributed, which was stored at -30°C.
(2) Assessment of binding inhibiting activity
To a 96-well microplate were added 1 µg of a membrane fraction, a compound and Y-RFRP-3 labeled with ^125I, which had been diluted with a reaction buffer (50 mM Tris-HCl, 5 mM EDTA, 0.1% BSA, 0.5 mM PMSF, 20 µg/ml leupeptin, 0.1 µg/ml pepstatin A, 4 µg/ml E-64, 10 mM MgCl2, pH 7.5), to 100pM to react them at room temperature for 1.5 hours. For measuring non-specific binding, non-labeled Y-RFRP-3 was further added to […]. Then, a membrane fraction was transferred to a unifilter GF/C (Perkin Elmer) by filtering the reaction solution using a cell harvester (Perkin Elmer), and this was washed with a cooled 50 mM Tris buffer (pH 7.5) five times. The filter was dried, Microsinti (Packard) was added to the filter, and radioactivity was measured with Topcount (Packard).
A binding inhibiting rate (IC50 value) of a test compound is shown in [Table 1].

No end group written: not given here.

With “RFRP-1 (MPHSFANLPLRF; not fully specified; ends and bridges not checked; UniProt Q9HCQ7 81-92, looked up)”, the rate of freezing in assay [1] amounted to 35.5%. In assay [2], the blood glucose concentration result is given as “significant (p<0.05, n = 4) activity of increasing a blood glucose concentration”. In addition, in assay [3] (intravenous (Fig. 3)), the blood insulin concentration entry is on record as “a variation due to administration of RFRP-1 was not recognized”. Further, the blood glucagon concentration entry in assay [3] (5 minutes after administration) was “significant (p<0.01) increase was continued”; in assay [3] (two minutes after administration), “significant (p<0.01) increase in a blood glucagon concentration”.
By IC50 is commonly meant the concentration needed to halve the response being measured. In the case of “tert-Butyl 7-bromo-4-hydroxy-2-neopentyl-1-oxo-1,2-dihydroisoquinoline-3-carboxylate [Example 10]”, the IC50 in the assay on human-type OT7T022 is < 1 µM.

Values taken from EP1604983A1, “RECEPTOR ANTAGONIST” (Takeda Pharmaceutical Company Limited, priority 2003, dated 2004).
